ChEMBL document CHEMBL1201862, “PubChem BioAssay data set” (2004)
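96-well plates; 48 h exposure; 5 concentrations. Endpoints by linear interpolation between flanking doses. Not reached: highest tested concentration assigned. GI50 = concentration required for 50% inhibition of growth.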 Activity calls are given as the source filed them. Cut-off read from the data, not from the text of the source: active = GI50 up to about 1.1 µM and inactive = higher.

Key:
Experiment in all cases: NCI anticancer screen, dose series, 48 h
786-0 = tested on: 786-0
A549 = tested on: A549
ACHN = tested on: ACHN
EKVX = tested on: EKVX
HCC 2998 = tested on: HCC 2998
HL-60 = tested on: HL-60
IGROV-1 = tested on: IGROV-1
LOX IMVI = tested on: LOX IMVI
NCI-H226 = tested on: NCI-H226
NCI-H23 = tested on: NCI-H23
NCI-H460 = tested on: NCI-H460
OVCAR-5 = tested on: OVCAR-5
OVCAR-8 = tested on: OVCAR-8
RXF 393 = tested on: RXF 393
T47D = tested on: T47D
U-251 = tested on: U-251
UACC-257 = tested on: UACC-257
SR = tested on: SR
UO-31 = tested on: UO-31
MDA-N = tested on: MDA-N

| Structure (SMILES) | GI50 (786-0) | GI50 (A549) | GI50 (ACHN) | GI50 (EKVX) | GI50 (HCC 2998) | GI50 (HL-60) | GI50 (IGROV-1) | GI50 (LOX IMVI) | GI50 (NCI-H226) | GI50 (NCI-H23) | GI50 (NCI-H460) | GI50 (OVCAR-5) | GI50 (OVCAR-8) | GI50 (RXF 393) | GI50 (T47D) | GI50 (U-251) | GI50 (UACC-257) | GI50 (SR) | GI50 (UO-31) | GI50 (MDA-N) |
| --- | --- | --- | --- | --- | --- | --- | --- | --- | --- | --- | --- | --- | --- | --- | --- | --- | --- | --- | --- | --- |
| Cc1cc2c(cc1Cl)SC(NNC(=O)c1ccccc1)=NS2(=O)=O | > 10 µM (inactive) | > 10 µM (inactive) | > 10 µM (inactive) | > 10 µM (inactive) | > 10 µM (inactive) | > 10 µM (inactive) | > 10 µM (inactive) | > 10 µM (inactive) | > 10 µM (inactive) | > 10 µM (inactive) | > 10 µM (inactive) | > 10 µM (inactive) | > 10 µM (inactive) | > 10 µM (inactive) | > 10 µM (inactive) | > 10 µM (inactive) | > 10 µM (inactive) | – | – | – |
| CC1/C=C/[C@@]2(C)CCC(C(C)(C)O)C2C(O)C[C@](C)(O)/C=C/C1 (stereo partly specified) | 21.7 µM (inactive) | > 100 µM (inactive) | > 100 µM (inactive) | > 100 µM (inactive) | > 100 µM (inactive) | 86.1 µM (inactive) | > 100 µM (inactive) | > 100 µM (inactive) | 7.31 µM (inactive) | > 100 µM (inactive) | > 100 µM (inactive) | > 100 µM (inactive) | > 100 µM (inactive) | > 100 µM (inactive) | – | > 100 µM (inactive) | > 100 µM (inactive) | 66.5 µM (inactive) | > 100 µM (inactive) | – |
| Cc1ccc(C(=N)c2ccccc2Cc2cccc3ccccc23)c2ccccc12 | > 100 µM (inactive) | 54.3 µM (inactive) | > 100 µM (inactive) | 60.1 µM (inactive) | – | 44.1 µM (inactive) | > 100 µM (inactive) | 80.2 µM (inactive) | > 100 µM (inactive) | 95.3 µM (inactive) | 41.5 µM (inactive) | > 100 µM (inactive) | > 100 µM (inactive) | > 100 µM (inactive) | 65.3 µM (inactive) | > 100 µM (inactive) | 33.1 µM (inactive) | 41.6 µM (inactive) | 44.8 µM (inactive) | – |
| COc1ccccc1OCC(COC(=O)Nc1ccc(C)cc1)OC(=O)Nc1ccc(C)cc1 (stereo unspecified) | 20 µM (inactive) | 57.1 µM (inactive) | 21.8 µM (inactive) | 25 µM (inactive) | 20.6 µM (inactive) | 15 µM (inactive) | 26 µM (inactive) | 15.8 µM (inactive) | 24.7 µM (inactive) | 23.2 µM (inactive) | 16.7 µM (inactive) | 21.8 µM (inactive) | 17 µM (inactive) | 7.19 µM (inactive) | – | 13.8 µM (inactive) | 19.3 µM (inactive) | 22.4 µM (inactive) | 17.2 µM (inactive) | – |
| O=C1N=C2Sc3ccc4ccccc4c3N2C1=O | 19.8 µM (inactive) | 19.6 µM (inactive) | 28.8 µM (inactive) | 16.1 µM (inactive) | 27 µM (inactive) | 43.6 µM (inactive) | 19.1 µM (inactive) | 19.2 µM (inactive) | 22.1 µM (inactive) | 22.5 µM (inactive) | 25.1 µM (inactive) | 50.7 µM (inactive) | 18.4 µM (inactive) | 20.2 µM (inactive) | – | 20.5 µM (inactive) | 28.1 µM (inactive) | > 100 µM (inactive) | 16 µM (inactive) | – |
| C=CCN(C(=O)CNC(=O)C(F)(F)F)c1cc(OCc2ccccc2)c2c(c1)c(C)cn2S(=O)(=O)c1ccccc1 | > 100 µM (inactive) | 7.5 µM (inactive) | > 26 µM (inactive) | 7.71 µM (inactive) | > 100 µM (inactive) | < 0.01 µM (active) | 12.1 µM (inactive) | 16 µM (inactive) | > 34.8 µM (inactive) | > 87.7 µM (inactive) | > 30.5 µM (inactive) | > 100 µM (inactive) | > 26.8 µM (inactive) | 5.51 µM (inactive) | 5.93 µM (inactive) | > 67.9 µM (inactive) | > 27.5 µM (inactive) | – | 2.9 µM (inactive) | – |
| COc1cc2c(c(OC)c1OC)-c1ccc(SC)c(=O)cc1[C@@H](NCc1cccc([N+](=O)[O-])c1)CC2 | < 0.01 µM (active) | < 0.01 µM (active) | < 0.01 µM (active) | < 0.01 µM (active) | < 0.01 µM (active) | < 0.01 µM (active) | < 0.01 µM (active) | < 0.01 µM (active) | < 0.01 µM (active) | < 0.01 µM (active) | < 0.01 µM (active) | > 100 µM (inactive) | < 0.01 µM (active) | < 0.01 µM (active) | – | < 0.01 µM (active) | < 0.01 µM (active) | > 100 µM (inactive) | 0.0366 µM (active) | – |
| CC1(C(=O)O)CCC[C@@]2(C)C1CC[C@@]1(C)c3cocc3CCC21 (stereo partly specified) | 83.6 µM (inactive) | 70.8 µM (inactive) | > 100 µM (inactive) | > 100 µM (inactive) | > 100 µM (inactive) | > 100 µM (inactive) | > 100 µM (inactive) | > 100 µM (inactive) | > 100 µM (inactive) | > 100 µM (inactive) | > 100 µM (inactive) | > 100 µM (inactive) | > 100 µM (inactive) | > 100 µM (inactive) | – | 97.7 µM (inactive) | > 100 µM (inactive) | > 100 µM (inactive) | > 100 µM (inactive) | – |
| SC1=NNC2(C(S)=N1)c1ccccc1-c1ccccc12 | > 10 µM (inactive) | > 10 µM (inactive) | – | > 10 µM (inactive) | > 10 µM (inactive) | > 10 µM (inactive) | > 10 µM (inactive) | > 10 µM (inactive) | 8.81 µM (inactive) | > 10 µM (inactive) | > 10 µM (inactive) | – | > 10 µM (inactive) | – | 4.83 µM (inactive) | > 10 µM (inactive) | > 10 µM (inactive) | > 10 µM (inactive) | 4.51 µM (inactive) | – |
| O=C(NC1CCC(=O)N1C(=O)OCc1ccccc1)OCc1ccccc1 (stereo unspecified) | > 100 µM (inactive) | > 100 µM (inactive) | > 100 µM (inactive) | – | > 100 µM (inactive) | – | > 100 µM (inactive) | – | > 100 µM (inactive) | > 100 µM (inactive) | > 100 µM (inactive) | > 100 µM (inactive) | > 100 µM (inactive) | > 100 µM (inactive) | – | > 100 µM (inactive) | > 100 µM (inactive) | > 100 µM (inactive) | > 100 µM (inactive) | > 100 µM (inactive) |
| O=C1C(Cl)=C(Cl)C(=O)C(CCNc2nccs2)=C1Cl | 23.3 µM (inactive) | > 100 µM (inactive) | 27.4 µM (inactive) | 24.5 µM (inactive) | > 100 µM (inactive) | 43.7 µM (inactive) | 14.8 µM (inactive) | – | – | 31.2 µM (inactive) | > 100 µM (inactive) | 44.3 µM (inactive) | 29.5 µM (inactive) | 22.4 µM (inactive) | 43.5 µM (inactive) | 36.3 µM (inactive) | 21.1 µM (inactive) | 47.2 µM (inactive) | 21.2 µM (inactive) | – |
| CC12CP(=O)(O)CC1C2(Cl)Cl (stereo unspecified) | > 100 µM (inactive) | > 100 µM (inactive) | > 100 µM (inactive) | > 100 µM (inactive) | > 100 µM (inactive) | > 100 µM (inactive) | > 100 µM (inactive) | > 100 µM (inactive) | > 100 µM (inactive) | > 100 µM (inactive) | > 100 µM (inactive) | > 100 µM (inactive) | > 100 µM (inactive) | > 100 µM (inactive) | > 100 µM (inactive) | > 100 µM (inactive) | > 100 µM (inactive) | > 100 µM (inactive) | 50.6 µM (inactive) | – |
| O=C1NC(=S)NC(=O)C1=CC1CC1 | > 100 µM (inactive) | > 100 µM (inactive) | > 100 µM (inactive) | > 100 µM (inactive) | > 100 µM (inactive) | > 100 µM (inactive) | > 100 µM (inactive) | > 100 µM (inactive) | > 100 µM (inactive) | > 100 µM (inactive) | > 100 µM (inactive) | > 100 µM (inactive) | > 100 µM (inactive) | > 100 µM (inactive) | – | > 100 µM (inactive) | > 100 µM (inactive) | > 100 µM (inactive) | > 100 µM (inactive) | – |
| CN(C)C(=O)C(F)(F)C(c1ccccc1)C1C(=O)N(C)C(=O)N(C)C1=O (stereo unspecified) | > 100 µM (inactive) | > 100 µM (inactive) | > 100 µM (inactive) | > 100 µM (inactive) | > 100 µM (inactive) | – | – | > 100 µM (inactive) | > 100 µM (inactive) | > 100 µM (inactive) | > 100 µM (inactive) | > 100 µM (inactive) | > 100 µM (inactive) | > 100 µM (inactive) | > 100 µM (inactive) | > 100 µM (inactive) | > 100 µM (inactive) | – | > 100 µM (inactive) | – |
| O=[N+]([O-])c1ccc(C2CC(c3ccccc3Cl)=Nc3ccccc3S2)cc1 (stereo unspecified) | 3.69 µM (inactive) | 5.69 µM (inactive) | 7.85 µM (inactive) | 14.5 µM (inactive) | 23.9 µM (inactive) | 2.01 µM (inactive) | 7.23 µM (inactive) | 3.7 µM (inactive) | 6.87 µM (inactive) | 6.15 µM (inactive) | 6.85 µM (inactive) | 12.9 µM (inactive) | 2.2 µM (inactive) | 3.26 µM (inactive) | – | 5.27 µM (inactive) | 12 µM (inactive) | 2.01 µM (inactive) | 4.88 µM (inactive) | – |
| CC1=CCN(c2ccccn2)OC1c1ccccc1 (stereo unspecified) | > 100 µM (inactive) | > 100 µM (inactive) | > 100 µM (inactive) | > 100 µM (inactive) | > 100 µM (inactive) | 66.8 µM (inactive) | > 100 µM (inactive) | > 100 µM (inactive) | > 100 µM (inactive) | > 100 µM (inactive) | > 100 µM (inactive) | 59.8 µM (inactive) | > 100 µM (inactive) | 62.8 µM (inactive) | – | > 100 µM (inactive) | > 100 µM (inactive) | 59.3 µM (inactive) | 59.8 µM (inactive) | – |
